This note sets out measurements from article PMC7104723 (Cell Research, 2020).

Non-standard residues stand in square brackets, D forms with d. Residues, ends and D or L forms follow the SMILES beside them. *: point of attachment. X1 = CC(C)CCC[C@@H](C)[C@H]1CC[C@H]2[C@@H]3CC=C4C[C@@H](OC(=O)C*)CC[C@]4(C)[C@H]3CC[C@]12C; Palmitoyl = CCCCCCCCCCCCCCCC(=O)*; PEG4 = NCCOCCOCCOCCOCCC(=O)O

One assay concerns the target SARS-CoV-2 S protein (Severe acute respiratory syndrome coronavirus 2, UniProt P0DTC2). Nature of the assay: cell-based. In kind it is cell-based.
Conditions: not given
As for `CC[C@H](C)[C@H](NC(=O)[C@H](C)NC(=O)[C@H](CCC(=O)O)NC(=O)[C@H](CCC(=O)O)NC(=O)[C@H](CC(C)C)NC(=O)[C@H](CCCCN)NC(=O)[C@H](CCCCN)NC(=O)[C@H](CCSC)NC(=O)[C@H](CCC(=O)O)NC(=O)[C@H](Cc1ccc(O)cc1)NC(=O)[C@H](CCC(=O)O)NC(=O)[C@H](CC(C)C)NC(=O)[C@H](CC(=O)O)NC(=O)[C@H](CC(C)C)NC(=O)[C@H](Cc1ccccc1)NC(=O)[C@@H](NC(=O)[C@@H](NC(=O)[C@H](CC(N)=O)NC(=O)[C@@H](NC(=O)[C@H](CCC(N)=O)NC(=O)[C@H](CC(=O)O)NC(=O)[C@H](CC(C)C)NC(=O)[C@@H](N)CO)[C@@H](C)CC)C(C)C)[C@@H](C)O)C(=O)N[C@@H](CCCCN)C(=O)N[C@@H](CCCCN)C(=O)N[C@@H](CC(C)C)C(=O)N[C@@H](CCC(=O)O)C(=O)N[C@@H](CCC(=O)O)C(=O)N[C@@H](CO)C(=O)N[C@@H](Cc1ccc(O)cc1)C(=O)N[C@H](C(=O)N[C@@H](CC(=O)O)C(=O)N[C@@H](CC(C)C)C(=O)N[C@@H](CCCCN)C(=O)N[C@@H](CCC(=O)O)C(=O)N[C@@H](CC(C)C)C(=O)NCCOCCOCCOCCOCCC(=O)N[C@@H](CSCC(=O)O[C@H]1CC[C@@]2(C)C(=CC[C@H]3[C@@H]4CC[C@H]([C@H](C)CCCC(C)C)[C@@]4(C)CC[C@@H]32)C1)C(N)=O)[C@@H](C)CC` [EK1C] (H-SLDQINVTFLDLEYEMKKLEEAIKKLEESYIDLKEL[PEG4]C(X1)-NH2), the “Inhibition of SARS-CoV-2 mediated cell–cell fusion at 2.5 μM” value was “completely inhibit”. On the same count and under the same terms, under `CCCCCCCCCCCCCCCC(=O)SC[C@H](NC(=O)CCOCCOCCOCCOCCNC(=O)[C@H](CC(C)C)NC(=O)[C@H](CCC(=O)O)NC(=O)[C@H](CCCCN)NC(=O)[C@H](CC(C)C)NC(=O)[C@H](CC(=O)O)NC(=O)[C@@H](NC(=O)[C@H](Cc1ccc(O)cc1)NC(=O)[C@H](CO)NC(=O)[C@H](CCC(=O)O)NC(=O)[C@H](CCC(=O)O)NC(=O)[C@H](CC(C)C)NC(=O)[C@H](CCCCN)NC(=O)[C@H](CCCCN)NC(=O)[C@@H](NC(=O)[C@H](C)NC(=O)[C@H](CCC(=O)O)NC(=O)[C@H](CCC(=O)O)NC(=O)[C@H](CC(C)C)NC(=O)[C@H](CCCCN)NC(=O)[C@H](CCCCN)NC(=O)[C@H](CCSC)NC(=O)[C@H](CCC(=O)O)NC(=O)[C@H](Cc1ccc(O)cc1)NC(=O)[C@H](CCC(=O)O)NC(=O)[C@H](CC(C)C)NC(=O)[C@H](CC(=O)O)NC(=O)[C@H](CC(C)C)NC(=O)[C@H](Cc1ccccc1)NC(=O)[C@@H](NC(=O)[C@@H](NC(=O)[C@H](CC(N)=O)NC(=O)[C@@H](NC(=O)[C@H](CCC(N)=O)NC(=O)[C@H](CC(=O)O)NC(=O)[C@H](CC(C)C)NC(=O)[C@@H](N)CO)[C@@H](C)CC)C(C)C)[C@@H](C)O)[C@@H](C)CC)[C@@H](C)CC)C(N)=O` [EK1P] (H-SLDQINVTFLDLEYEMKKLEEAIKKLEESYIDLKEL[PEG4]C(Palmitoyl)-NH2) stands “completely inhibit”.

A further assay concerns SARS-CoV-2 PsV.
Test: not given
The conditions noted are these: PsV, 72 h.
With `CC[C@H](C)[C@H](NC(=O)[C@H](C)NC(=O)[C@H](CCC(=O)O)NC(=O)[C@H](CCC(=O)O)NC(=O)[C@H](CC(C)C)NC(=O)[C@H](CCCCN)NC(=O)[C@H](CCCCN)NC(=O)[C@H](CCSC)NC(=O)[C@H](CCC(=O)O)NC(=O)[C@H](Cc1ccc(O)cc1)NC(=O)[C@H](CCC(=O)O)NC(=O)[C@H](CC(C)C)NC(=O)[C@H](CC(=O)O)NC(=O)[C@H](CC(C)C)NC(=O)[C@H](Cc1ccccc1)NC(=O)[C@@H](NC(=O)[C@@H](NC(=O)[C@H](CC(N)=O)NC(=O)[C@@H](NC(=O)[C@H](CCC(N)=O)NC(=O)[C@H](CC(=O)O)NC(=O)[C@H](CC(C)C)NC(=O)[C@@H](N)CO)[C@@H](C)CC)C(C)C)[C@@H](C)O)C(=O)N[C@@H](CCCCN)C(=O)N[C@@H](CCCCN)C(=O)N[C@@H](CC(C)C)C(=O)N[C@@H](CCC(=O)O)C(=O)N[C@@H](CCC(=O)O)C(=O)N[C@@H](CO)C(=O)N[C@@H](Cc1ccc(O)cc1)C(=O)N[C@H](C(=O)N[C@@H](CC(=O)O)C(=O)N[C@@H](CC(C)C)C(=O)N[C@@H](CCCCN)C(=O)N[C@@H](CCC(=O)O)C(=O)N[C@@H](CC(C)C)C(=O)NCCOCCOCCOCCOCCC(=O)N[C@@H](CSCC(=O)O[C@H]1CC[C@@]2(C)C(=CC[C@H]3[C@@H]4CC[C@H]([C@H](C)CCCC(C)C)[C@@]4(C)CC[C@@H]32)C1)C(N)=O)[C@@H](C)CC` [EK1C] (H-SLDQINVTFLDLEYEMKKLEEAIKKLEESYIDLKEL[PEG4]C(X1)-NH2), the IC50 amounted to 0.139 µM. The same measure, in the same setting: under `CC[C@H](C)[C@H](NC(=O)[C@H](C)NC(=O)[C@H](CCC(=O)O)NC(=O)[C@H](CCC(=O)O)NC(=O)[C@H](CC(C)C)NC(=O)[C@H](CCCCN)NC(=O)[C@H](CCCCN)NC(=O)[C@H](CCSC)NC(=O)[C@H](CCC(=O)O)NC(=O)[C@H](Cc1ccc(O)cc1)NC(=O)[C@H](CCC(=O)O)NC(=O)[C@H](CC(C)C)NC(=O)[C@H](CC(=O)O)NC(=O)[C@H](CC(C)C)NC(=O)[C@H](Cc1ccccc1)NC(=O)[C@@H](NC(=O)[C@@H](NC(=O)[C@H](CC(N)=O)NC(=O)[C@@H](NC(=O)[C@H](CCC(N)=O)NC(=O)[C@H](CC(=O)O)NC(=O)[C@H](CC(C)C)NC(=O)[C@@H](N)CO)[C@@H](C)CC)C(C)C)[C@@H](C)O)C(=O)N[C@@H](CCCCN)C(=O)N[C@@H](CCCCN)C(=O)N[C@@H](CC(C)C)C(=O)N[C@@H](CCC(=O)O)C(=O)N[C@@H](CCC(=O)O)C(=O)N[C@@H](CO)C(=O)N[C@@H](Cc1ccc(O)cc1)C(=O)N[C@H](C(=O)N[C@@H](CC(=O)O)C(=O)N[C@@H](CC(C)C)C(=O)N[C@@H](CCCCN)C(=O)N[C@@H](CCC(=O)O)C(=O)N[C@@H](CC(C)C)C(=O)NCC(=O)N[C@@H](CO)C(=O)NCC(=O)N[C@@H](CO)C(=O)NCC(=O)NCCOCCOCCOCCOCCOCCOCCOCCOCCOCCOCCOCCOCCC(=O)N[C@@H](CSCC(=O)O[C@H]1CC[C@@]2(C)C(=CC[C@H]3[C@@H]4CC[C@H]([C@H](C)CCCC(C)C)[C@@]4(C)CC[C@@H]32)C1)C(N)=O)[C@@H](C)CC` [EK1C6] stands 0.0774 µM.
